Test systems include A549; CAKI-1; CCRF-CEM; COLO 205; HCT-15; HL-60; HOP-62; K562; NCI-H226; NCI-H460; OVCAR-3; OVCAR-4; OVCAR-5; RPMI-8226; RXF 393; SK-MEL-28; SK-MEL-2; U-251; UACC-62; UO-31.
Test in all cases: growth of human tumour cells (NCI), 48 h

Molecules are shown by their SMILES.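 These data come from cells grown in 96-well plates and exposed to compound for 48 hours at five concentrations. GI50 = concentration required for 50% inhibition of growth.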 The source made the active and inactive calls. No stated cut-off is given here; in the data, active = GI50 up to about 1.1 µM and inactive = higher.

For `CC(NC(=O)C(NC(=O)CNC(=O)OC(C)(C)C)C(C)C)C(=O)Oc1c(Cl)c(Cl)c(Cl)c(Cl)c1Cl` (stereo not given), the GI50 was 22.4 µM (inactive) with A549; 19 µM (inactive) in the assay with CAKI-1; 51.1 µM (inactive) in the assay on CCRF-CEM; 17 µM (inactive) in the assay with COLO 205; 17.5 µM in the assay on HCT-15; 55.2 µM (inactive) in the assay with HL-60. The GI50 in the assay on HOP-62 was 18.4 µM (inactive); in the assay on K562 it was 50.7 µM (inactive); in the assay on NCI-H226 it was 19.8 µM (inactive); in the assay with NCI-H460, 18.6 µM (inactive); in the assay with OVCAR-3, 13.2 µM (inactive); in the assay with OVCAR-4, 18.8 µM (inactive). The GI50 is 14.7 µM (inactive) with OVCAR-5; 45.2 µM (inactive) in the assay on RPMI-8226; 17.5 µM (inactive) in the assay on RXF 393; 26.6 µM (inactive) in the assay on SK-MEL-28; 14.3 µM (inactive) with SK-MEL-2; 21.1 µM (inactive) in the assay on U-251. The values for the GI50 in the assay with UACC-62 and with UO-31 were 18.2 µM (inactive) and 16 µM (inactive), respectively.

On to `Cc1cc(OCC(O)CO)ccc1Cl` (stereo not given), for which the GI50 with A549 was > 100 µM (inactive); with CAKI-1, > 100 µM (inactive); in the assay with CCRF-CEM it was > 100 µM (inactive); with COLO 205, > 100 µM (inactive); in the assay with HCT-15 it was more than 100 µM; with HL-60, > 100 µM (inactive). Moreover, the GI50 with HOP-62, in the assay on K562, in the assay with NCI-H226, in the assay with NCI-H460, in the assay on OVCAR-3 and in the assay on OVCAR-4 was > 100 µM (inactive) throughout. In addition, the GI50 in the assay on OVCAR-5, in the assay with RPMI-8226, in the assay with RXF 393, in the assay with SK-MEL-28, in the assay with SK-MEL-2 and in the assay with U-251 was > 100 µM (inactive) throughout. The GI50 in the assay with UACC-62 and with UO-31 was > 100 µM (inactive) throughout.

With `CN(C)C(=S)/N=c1\ss/c(=N\C(=S)N(C)C)n1C1CCCCC1`, the GI50 in the assay with A549 is > 100 µM (inactive); in the assay with CAKI-1, > 100 µM (inactive); in the assay with CCRF-CEM, 32.7 µM (inactive); in the assay on COLO 205, 30.8 µM (inactive); in the assay with HCT-15, more than 100 µM; in the assay with HL-60, 69 µM (inactive). Also, the GI50 in the assay on HOP-62 was > 100 µM (inactive); in the assay with K562, 28.1 µM (inactive); in the assay on NCI-H226 it was > 100 µM (inactive); with NCI-H460, 0.515 µM (active); in the assay on OVCAR-3, > 100 µM (inactive); in the assay on OVCAR-4, 15.5 µM (inactive). The GI50 in the assay with OVCAR-5 is > 100 µM (inactive); in the assay with RPMI-8226 it was 25.5 µM (inactive); in the assay on RXF 393, > 100 µM (inactive); in the assay with SK-MEL-28, > 100 µM (inactive); in the assay with SK-MEL-2, > 100 µM (inactive); in the assay with U-251, 27.4 µM (inactive). Besides, the GI50 was 1.06 µM (active) in the assay on UACC-62 and > 100 µM (inactive) in the assay on UO-31.

`O=C1C=C2SC3C[C@@]24CC1(O)[N+]1=c2c4c(c(O)c4c2=C(C=N4)CC1)N3`: the GI50 with A549 was 2 µM (inactive); in the assay with CAKI-1, 2.24 µM (inactive); in the assay on CCRF-CEM it was 0.321 µM (active); with COLO 205, 0.176 µM (active); in the assay with HCT-15 it was 1.64 µM; with HL-60, 0.217 µM (active). For the same molecule, the GI50 was 1.82 µM (inactive) in the assay on HOP-62; 0.64 µM (active) in the assay on K562; 1.78 µM (inactive) in the assay on NCI-H226; 2.07 µM (inactive) in the assay on NCI-H460; 0.206 µM (active) in the assay with OVCAR-3; 1.26 µM (inactive) with OVCAR-4. For the same molecule, the GI50 was 2.33 µM (inactive) in the assay on OVCAR-5; 0.457 µM (active) in the assay with RPMI-8226; 1.35 µM (inactive) with RXF 393; 1.64 µM (inactive) in the assay with SK-MEL-28; 1.44 µM (inactive) in the assay on SK-MEL-2; 1.75 µM (inactive) with U-251. Also, the GI50 in the assay on UACC-62 is 0.533 µM (active); in the assay with UO-31, 1.89 µM (inactive).

The values are drawn from ChEMBL document CHEMBL1201862, “PubChem BioAssay data set” (2004).
